The source of these data is paper PMC7956166, “Phage-Display Based Discovery and Characterization of Peptide Ligands against WDR5” (Molecules, 2021).

Positions of bridges follow the written chain, without caps; N, C: chain ends. Residues, ends and D or L forms follow the SMILES beside them. No end group written: not given here.

The assay concerns the target T1, WDR5 (Homo sapiens, UniProt P61964).
T1 construct: DNA fragment encoding amino acids 23 to 483 of WDR5 subcloned in the pET-28a plasmid; His6 (N); SUMO (N); made in house; host or cells: Escherichia coli BL21(DE3)
Put plainly: Fluorescence polarization (FP) competitive binding assay. The settings on record: for EC50: FP competitive assay vs fluorescently labeled tracer (2.5 nM), 0.2 M phosphate, 300 mM NaCl, 0.1% CHAPS, pH 6.5, 0.5 mM TCEP, 4 h incubation, 384-well plate, two independent experiments; for EC50 / Ki: mean ± standard error; for Ki: Ki from nonlinear regression fitting based on Kd of the probe, protein 5 nM. Here is the method:
The fluorescence polarization (FP) binding assays used to evaluate the ability of these cyclic peptides targeting protein WDR5 were carried out in the 384-well plate. We synthesized the fluorescently labeled positive compound [28, 29]: 1-((3′,6′-dihydroxy-3-oxo-3H-spiro[isobenzofuran-1,9′-xanthen]-5-yl)amino)-N-(3′-(3,5-dimethylbenzamido)-4′-(4-methylpiperazin-1-yl)-[1,1′-biphenyl]-4-yl)-1-thioxo-5,8,11-trioxa-2-azatetradecan-14-amide, which was used in direct binding assay against WDR5. 10 μL of 10 nM positive compound was added to 20 μL WDR5(the final concentration was 5 nM) in the buffer containing 0.2 M phosphate; 300 mM NaCl; 0.1%CHAPS; PH 6.5; 0.5 mM TCEP. Then the peptide compound to be tested was diluted in a gradient and added to each well with 10μL. Finally, the assay was carried out in 40 μL volume and the protein tracer mixture was incubated for 4 h before reading the plate. The fluorescence polarization was measured in Synergy™ Neo2 Multi-Mode Microplate Reader using an excitation filter at 485 nm and an emission filter at 535 nm. Each experiment was done two times and each polarization readings consisted of two averaged measurements. The reading is processed by the following formula:(1) Inhibition=C−F/C−B×100% where C is the anisotropy value of the fluorescence substrate bound to the protein completely, B is the anisotropy value of the fluorescence substrate, F is the corresponding anisotropy value after adding different concentrations of peptides. The data were plotted against the log peptide concentration and was fitted into a one site-Fit logIC50 equation with Graphpad Prim5 software using nonlinear regression model to obtain the competitive curve:(2) Y=A+B−A/1+10^(x−LogIC50) where x is log10 of the compound concentration in M, Y is the inflection point (EC50 or IC50), A is the bottom plateau effect, B is the top plateau effect. Potency (IC50/EC50) is the log of the concentration of competitor that results in binding half-way between bottom and top.
The EC50 values of peptides were determined in competitive binding experiments by nonlinear regression fitting of the competition curves as mentioned above. And Ki values of competitive inhibitors were obtained directly by nonlinear regression fitting, based upon the Kd values of the probe to different proteins and concentrations of the proteins and probes in the competitive assays. The data is processed by the following formula:(3) F0=P+L0+Kd−(P+L0+Kd)^2−4×P×L0/2×L0 (4) IC50/F0×Kd/(1−F0)(2−F0)+F0×L0/2=Ki(2−F0)/Kd×F0+1 where P is the proteins concentration in the assay (5 nM), L0 is the Tracer concentration in the assay (2.5 nM), F0 and the corresponding Ki value can be calculated according to the above formula.

Where [1] appears, read: FP competitive assay, tracer 2.5 nM.

The EC50 is the midpoint of the concentration-response curve. Broadly, the Ki is a dissociation constant, usually derived from enzyme kinetics or from competition with a known ligand. Regarding `CC(C)C[C@@H]1NC(=O)[C@H]([C@@H](C)O)NC(=O)[C@H](CCCNC(=N)N)NC(=O)[C@@H](N)CSSC[C@@H](C(=O)O)NC(=O)[C@H](CCC(=O)O)NC(=O)[C@H](Cc2c[nH]cn2)NC(=O)[C@H](Cc2ccccc2)NC(=O)[C@@H]2CCCN2C1=O` [D206115] (H-CRTLPFHEC-OH; disulfide 1-9), the EC50 (WDR5 5 nM) came to 5900 ± 200 nM. Further, the inhibitory constant (Ki) under setting [1] was 1200 ± 40 nM. The matching figures for `CC(C)C[C@@H]1NC(=O)[C@H]([C@@H](C)O)NC(=O)[C@H](CCCNC(=N)N)NC(=O)[C@@H](N)CSSC[C@@H](C(=O)O)NC(=O)[C@H](CO)NC(=O)CNC(=O)[C@H](Cc2ccccc2)NC(=O)[C@@H]2CCCN2C1=O` [D206181] (H-CRTLPFGSC-OH; disulfide 1-9): 4400 ± 400 nM and 900 ± 80 nM. Regarding `CC(C)C[C@@H]1NC(=O)[C@H]([C@@H](C)O)NC(=O)[C@H](CCCNC(=N)N)NC(=O)[C@@H](N)CSSC[C@@H](C(=O)O)NC(=O)[C@H](C)NC(=O)CNC(=O)[C@H](Cc2ccc(O)cc2)NC(=O)[C@@H]2CCCN2C1=O` [D206180] (H-CRTLPYGAC-OH; disulfide 1-9), the EC50 (WDR5 5 nM) was 2700 ± 200 nM. Moreover, under setting [1], the Ki is 500 ± 50 nM. For “CEKMVATHC (disulfide 1-9 (inferred)) [D206116, disulfide-constrained cyclic peptide from phage display, without “RT” motif]”, the “binding to WDR5 (in words)” value (FP competitive assay, WDR5 5 nM, tracer 2.5 nM, pH 6.5) is listed as “unable to bind to WDR5”.

In the case of `CC(C)C[C@@H]1NC(=O)[C@H]([C@@H](C)O)NC(=O)[C@H](CCCNC(=N)N)NC(=O)[C@@H](N)CSSC[C@@H](C(=O)O)NC(=O)[C@H](CC(N)=O)NC(=O)[C@H](CC(N)=O)NC(=O)[C@H](Cc2c[nH]c3ccccc23)NC(=O)[C@@H]2CCCN2C1=O` [D206179] (H-CRTLPWNNC-OH; disulfide 1-9), the EC50 (WDR5 5 nM) was 2300 ± 600 nM. For the same compound, the Ki under setting [1] stood at 500 ± 100 nM.
